# Test results from patent publication US8106050B2, “Derivatives of pyrrolo-pyrazines having a kinase inhibitory activity and their biological applications” (Centre National de la Recherche Scientifique (C.N.R.S.), priority 2002, dated 2012).
# Structures can show the parent of a compound that is named as a salt. Where two headings read alike, the source gives them in different places.
# What was measured:
# CDK5/p25 = CDK5/p25 (Homo sapiens, UniProt Q00535); experiment: CDK5/p25 kinase assay (histone H1, 15 μM ATP); assay type: biochemical, mammalian; conditions: Table 1
# Sequence of CDK5/p25 (Q00535 whole entry, species assumed): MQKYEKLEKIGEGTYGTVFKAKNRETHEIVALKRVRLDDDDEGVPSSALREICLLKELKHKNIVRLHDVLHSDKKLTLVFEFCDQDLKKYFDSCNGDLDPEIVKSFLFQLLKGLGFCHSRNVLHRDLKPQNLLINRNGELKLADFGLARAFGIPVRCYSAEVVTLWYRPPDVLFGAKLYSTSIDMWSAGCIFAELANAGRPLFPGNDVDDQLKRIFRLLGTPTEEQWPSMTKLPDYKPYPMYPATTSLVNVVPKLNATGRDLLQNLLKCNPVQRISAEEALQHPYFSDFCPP
# Sequence of CDK5/p25 (Q15078 99-307 partner limits assumed, species assumed): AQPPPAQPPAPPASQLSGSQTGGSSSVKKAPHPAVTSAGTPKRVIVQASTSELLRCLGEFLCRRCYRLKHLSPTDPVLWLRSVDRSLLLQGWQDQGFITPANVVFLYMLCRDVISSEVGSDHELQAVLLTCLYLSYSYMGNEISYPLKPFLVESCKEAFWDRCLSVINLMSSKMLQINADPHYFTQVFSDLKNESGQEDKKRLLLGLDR
# Procedure: (§1) Blank values were subtracted and activities calculated as pmoles of phosphate incorporated for a 10 min. incubation. […] Controls were performed with appropriate dilutions of dimethylsulfoxide. In a few cases phosphorylation of the substrate was assessed by autoradiography after SDS-PAGE.
# CDK5/p25 was reconstituted by mixing equal amounts of recombinant mammalian CDK5 and p25 expressed in E. coli as GST (Glutathione-S-transferase) fusion proteins and purified by affinity chromatography on glutathione-agarose (p25 is a truncated version of p35, the 35 kDa CDK5 activator). Its activity was assayed in buffer C as described for CDK1/cyclin B.
# (§2) Kinases were assayed as above described in the presence of increasing concentrations of aloisines.
# GSK-3α/β = experiment: GSK-3 kinase assay (GS-1 peptide, 15 μM ATP); assay type: biochemical, porcine; conditions: read-out: IC50 GSK-3
# Procedure: as §1
# GSK-3α/β was either purified from porcine brain or expressed in and purified from insect Sf9 cells. […] ATP (3,000 Ci/mmol; 1 mCi/ml) in a final volume of 30 μl. After 30 min. incubation at 30° C., 25 μl aliquots of supernatant were spotted onto 2.5×3 cm pieces of Whatman P81 phosphocellulose paper, and, 20 sec. later, the filters were washed five times (for at least 5 min. each time) in a solution of 10 ml phosphoric acid/liter of water. The wet filters were counted in the presence of 1 ml ACS (Amersham) scintillation fluid.
# as §2
# CDK1/cyclin B = CDK1/cyclin B kinase assay (histone H1, 15 μM ATP); assay type: biochemical, starfish (Marthasterias glacialis); conditions: 15 μM ATP, Table 1
# Procedure: as §1
# CDK1/cyclin B was extracted in homogenisation buffer from M phase starfish (Marthasterias glacialis) oocytes and purified by affinity chromatography on p9^CKShs1-sepharose beads, from which it was eluted by free p9^CKShs1. […] ATP (3,000 Ci/mmol; 1 mCi/ml) in a final volume of 30 μl. After 10 min. incubation at 30° C., 25 μl aliquots of supernatant were spotted onto P81 phosphocellulose papers and treated as described above.
# as §2
Compound,IC50 (CDK5/p25) [nM],melting point,"IC50 (GSK-3α/β; 15 μM ATP, Table 1) [nM]",IC50 (CDK1/cyclin B) [nM],IC50 (GSK-3α/β) [nM]
"c1coc(-c2cc3nccnc3[nH]2)c1 [1 (RP19), 6-(2-Furyl)[5H]pyrrolo[2,3-b]pyrazine]",9300,232.6 °C,15000,12000,–
"c1csc(-c2cc3nccnc3[nH]2)c1 [2 (RP6), 6-(2-Thienyl)[5H]pyrrolo[2,3-b]pyrazine]",2000,260.3 °C,1200,7000,–
c1cnc2[nH]c(-c3ccsc3)cc2n1 [3 (RP128)],1000,230 °C (dec.),800,2300,–
"c1ccc(-c2cc3nccnc3[nH]2)nc1 [4 (RP13), 6-(2-Pyridyl)[5H]pyrrolo[2,3-b]pyrazine]",53000,233.1 °C,15000,21000,–
"c1ccc(-c2cc3nccnc3[nH]2)cc1 [5 (RP7), 6-Phenyl[5H]pyrrolo[2,3-b]pyrazine]",4000,216 °C,2300,5000,–
"c1ccc2c(-c3cc4nccnc4[nH]3)cccc2c1 [6 (RP17), 6-(1-Naphtyl) [5H]pyrrolo[2,3-b]pyrazine]",–,216.4 °C,27000,> 100000,–
"Cc1cnc2cc(-c3ccccc3)[nH]c2n1 [8 (RP18), 3-Methyl-6-phenyl[5H]pyrrolo[2,3-b]pyrazine]",–,261.8 °C,> 100000,69000,–
"Clc1ccc(C2(c3cc4nccnc4[nH]3)CC2)cc1 [9 (RP124), 6-[1-(4-Chlorophenyl)-1-cyclopropyl][5H]pyrrolo[2,3-b]pyrazine]",–,189.7 °C,1000,30000,–
"COc1ccccc1-c1cc2nccnc2[nH]1 [10 (RP9), 6-(2-Methoxyphenyl)[5H]pyrrolo[2,3-b]pyrazine]",–,156.9 °C,3300,20000,–
"Br.Oc1ccccc1-c1cc2nccnc2[nH]1 [11 (RP109), 6-(2-Hydroxyphenyl)[5H]pyrrolo[2,3-b]pyrazine hydrobromide]",3000,250 °C (dec.),6500,2500,–
"COc1cccc(-c2cc3nccnc3[nH]2)c1 [12 (RP10), 6-(3-Methoxyphenyl)[5H]pyrrolo[2,3-b]pyrazine]",–,195.7 °C,3200,13000,–
"Br.Oc1cccc(-c2cc3nccnc3[nH]2)c1 [13 (RP134), 6-(3-Hydroxyphenyl)[5H]pyrrolo[2,3-b]pyrazine hydrobromide]",–,258 °C (dec.),–,2500,–
"Br.Oc1ccc(-c2cc3nccnc3[nH]2)cc1 [15 (RP26), 6-(4-Hydroxyphenyl) [5H]pyrrolo[2,3-b]pyrazine hydrobromide]",–,255 °C (dec.),–,1200,1200
"COc1cc(OC)cc(-c2cc3nccnc3[nH]2)c1 [16 (RP21), 6-(3,5-Dimethoxyphenyl)[5H]pyrrolo[2,3-b]pyrazine]",> 100000,216.7 °C,60000,–,–
"COc1cc(-c2cc3nccnc3[nH]2)cc(OC)c1OC [17 (RP16), 6-(3,4,5-Trimethoxyphenyl)[5H]pyrrolo[2,3-b]pyrazine]",> 100000,231.7 °C,85000,–,–
"Fc1ccc(-c2cc3nccnc3[nH]2)cc1 [18 (RP76), 6-(4-Fluorophenyl)[5H]pyrrolo[2,3-b]pyrazine]",–,244 °C (dec.),1900,2300,–
"Clc1ccc(-c2cc3nccnc3[nH]2)cc1 [19 (RP14), 6-(4-Chlorophenyl)[5H]pyrrolo[2,3-b]pyrazine]",–,250 °C (dec.),–,1800,–
"Brc1ccc(-c2cc3nccnc3[nH]2)cc1 [21 (RP77), 6-(4-Bromophenyl) [5H]pyrrolo[2,3-b]pyrazine]",> 100000,256 °C (dec.),6000,–,–
"N#Cc1ccc(-c2cc3nccnc3[nH]2)cc1 [23 (RP20), 6-(4-Cyanophenyl) [5H]pyrrolo[2,3-b]pyrazine]",–,340 °C (dec.),4800,3000,–
"Cc1ccc(-c2cc3nccnc3[nH]2)cc1 [24 (RP78), 6-(4-Methylphenyl)[5H]pyrrolo[2,3-b]pyrazine]",–,265.4 °C,2600,3000,–

Compound,IC50 (CDK5/p25) [nM],melting point,"IC50 (GSK-3α/β; 15 μM ATP, Table 1) [nM]",IC50 (CDK1/cyclin B) [nM],IC50 (GSK-3α/β) [nM]
"COc1ccc(-c2[nH]c3nccnc3c2C)cc1 [27 (RP95), 6-(4-Methoxyphenyl)-7-methyl[5H]pyrrolo[2,3-b]pyrazine]",–,221.6 °C,460,300,–
"Br.Cc1c(-c2ccc(O)cc2)[nH]c2nccnc12 [28 (RP96), 6-(4-Hydroxyphenyl)-7-methyl[5H]pyrrolo[2,3-b]pyrazine hydrobromide]",–,262 °C (dec.),520,250,–
"COc1ccc(-c2[nH]c3nccnc3c2C)cc1OC [29 (RP123), 6-(3,4-Methoxyphenyl)-7-methyl[5H]pyrrolo[2,3-b]pyrazine]",–,230.2 °C,2000,1100,–
"Cc1c(-c2ccc(Cl)cc2)[nH]c2nccnc12 [30 (RP80), 6-(4-Chlorophenyl)-7-methyl[5H]pyrrolo[2,3-b]pyrazine]",–,260 °C (dec.),1700,–,–
"Cc1c(-c2ccc(OS(=O)(=O)N(C)C)cc2)[nH]c2nccnc12 [31 (RP125), 6-(4-Dimethylaminosulfamoyloxyphenyl)-7-methyl[5H]pyrrolo[2,3-b]pyrazine]",900,–,500,700,–
CCCc1c(-c2ccc(OC)cc2)[nH]c2nccnc12 [32 (RP127)],–,188.5 °C,400,400,–
"Br.CCCc1c(-c2ccc(O)cc2)[nH]c2nccnc12 [33 (RP132), 6-(4-Hydroxyphenyl)-7-propyl[5H]pyrrolo[2,3-b]pyrazine hydrobromide]",–,244 °C (dec.),1800,25000,–
"C=CCc1c(-c2ccc(OC)cc2)[nH]c2nccnc12 [34 (RP110), 7-Allyl-6-(4-methoxyphenyl)[5H]pyrrolo[2,3-b]pyrazine]",–,193.8 °C,600,1000,–
"COc1ccc(-c2[nH]c3nccnc3c2CCCCl)cc1 [35 (RP126), 7-(3-Chloropropyl)-6-(4-methoxyphenyl)[5H]pyrrolo[2,3-b]pyrazine]",–,178 °C (dec.),2500,–,–
"COc1ccc(-c2[nH]c3nccnc3c2C(C)C)cc1 [36 (RP102), 7-Isopropyl-6-(4-methoxyphenyl)[5H]pyrrolo[2,3-b]pyrazine]",–,204.8 °C,500,–,–
"CC(C)c1c(-c2ccc(Cl)cc2)[nH]c2nccnc12 [37 (RP90), 6-(4-Chlorophenyl)-7-isopropyl[5H]pyrrolo[2,3-b]pyrazine]",–,208.6 °C,750,850,–
"CCCCc1c(-c2ccc(OC)cc2)[nH]c2nccnc12 [38 (RP106), 7-n-Butyl-6-(4-methoxyphenyl)[5H]pyrrolo[2,3-b]pyrazine]",–,–,920,–,–
"COc1ccc(-c2c(C)c3nccnc3n2C2CC2)cc1 [42 (RP104), 6-(4-Methoxyphenyl)-7-methylcyclopropyl[5H]pyrrolo[2,3-b]pyrazine]",> 100000,–,1100,1000,–
"Oc1ccc(-c2[nH]c3nccnc3c2CC2CC2)cc1 [43 (RP112), 6-(4-Hydroxyphenyl)-7-methylcyclopropyl[5H]pyrrolo[2,3-b]pyrazine hydrobromide]",> 100000,–,3000,50000,–
"Clc1ccc(-c2[nH]c3nccnc3c2Cc2ccccc2)cc1 [45 (RP91), 7-Benzyl-6-(4-chlorophenyl)[5H]pyrrolo[2,3-b]pyrazine]",> 100000,266.3 °C,6800,–,–
"COc1ccc(-c2c(C)c3nccnc3n2C2CCCCC2)cc1 [46 (RP98), 6-(4-Methoxyphenyl)-7-methylcyclohexyl[5H]pyrrolo[2,3-b]pyrazine]",> 100000,–,6800,5000,–
"Cc1c(-c2ccc(Cl)cc2)n(C2CCCCC2)c2nccnc12 [47 (RP99), 6-(4-Chlorophenyl)-7-methylcyclohexyl[5H]pyrrolo[2,3-b]pyrazine]",> 100000,–,8000,10000,–
Cn1c(-c2ccccc2)cc2nccnc21 [48 (RP22)],7000,–,> 100000,–,–
Cc1c(C2(c3ccc(Cl)cc3)CC2)[nH]c2nccnc12 [49 (RP130)],–,–,18000,–,–
